# Experimental data taken from patent US12485117B2, “Compositions and methods for activating signaling through the CB1 cannabinoid receptor for treating and preventing diseases and disorders characterized by abnormal cellular accumulation of sphingolipids such as sphingomyelin” (Wylder Nation Foundation, priority 2018, dated 2025).
# Experiments:
# wt and ASMko mice [1] = experiment: Acute toxicity: SM and ceramide levels in blood; assay type: in vivo, mouse
# Experimental: (§1) We divided wt and ASMko mice of 4.5 months of age in six experimental groups: ASMko control (n=3), ASMko low dose (n=3), ASMko intermediate dose (n=3), ASMko high dose (n=3), wt control (n=3), wt high dose (n=3). PF-04457845, provided as powder, was dissolved in 0.9% NaCl and administered to mice through oral gavage. Vehicle groups received same volume of 0.9% NaCl.
# After these 48 hours and immediately before termination we collected blood from mice and prepared serum by leaving blood samples 30 minutes for clotting at room temperature and by collecting the supernatant after centrifugation at 6000 rpm for 10 minutes. Following termination, mice were transcardially perfused with phosphate-buffered saline (PBS).
# SM and ceramide levels were also monitored in the blood of wt and ASMko mice with and without PF-04457845 treatment as a readout of acute toxicity.
# anandamide levels = experiment: Anandamide levels by mass spectrometry in the hippocampus; assay type: in vivo, mouse; details: 0.3 mg/kg every three days
# Experimental: FIGS. 18A-18B show hippocampal anandamide and CB1 levels in wt and ASMko mice treated or not treated with PF-04457845. […] Graphs show mean±SEM CB1 intensity in arbitrary units (n=5, *p<0.05).
# (§2) Treatment started at 7 weeks of age and continued for 8 weeks. PF-04457845 was dissolved in 0.9% NaCl and delivered through oral gavage at a dose of 0.3 mg/kg every three days. We chose this dose based on the studies published by Ahn et al., (J Pharm Exp Ther 2011). Control groups received same volume of 0.9% NaCl without PF-04457845.
# PF-04457845 inhibits the enzyme (FAAH) that hydrolyzes the endocannabinoid anandamide, which in turn activates the CB1 receptor leading to neutral sphingomyelinase activation and sphingomyelin hydrolysis. To determine the effects of PF-04457845 treatment in the endocannabinoid system we analyzed anandamide and CB1 levels in the brain of PF-04457845 treated and non-treated mice.
# microglia = experiment: Microglia number and morphology by iba-1 immunofluorescence after 8-week treatment; assay type: in vivo, mouse; details: 0.3 mg/kg every three days
# Experimental: Representative images of microglia stained for iba-1 (green) in the cerebellum, hippocampus and cortex of wt and ASMko mice treated or not with PF-04457845. […] Graphs show mean±SEM microglia number and cell body area (n=7, **p<0.01, *p<0.05).
# as §2
# Brain inflammation was determined by analysis of glial cells in the cerebellum, hippocampus and cortex. The number and morphology of microglia was analyzed by immunofluorescence staining with the marker iba-1 (FIG. 16). […] PF-04457845 treatment had no effect in microglia of wt mice. The amount of astrocytes was analyzed by immunofluorescence with the marker GFAP (FIG. 17). […] PF-04457845 treatment had no effect in astrocytes of wt mice (FIG. 17).
# ASMko cultured neurons = experiment: MAP2 immunofluorescence of dendrites in ASMko cultured neurons; assay type: cell-based, mouse; details: 50 μM for 1 hour
# wt and ASMko mice [2] = experiment: Accelerating Rotarod (motor abilities); assay type: in vivo, mouse; details: 0.3 mg/kg every three days
# Experimental: as §2
# Cerebellar dependent motor abilities were monitored in an accelerating Rotarod (FIG. 12) on which the mice were trained for two days at a constant speed: the first day four times at 4 rpm for 1 min and the second day four times at 8 rpm for 1 min. On the third day, the Rotarod was set to progressively accelerate from 4 to 40 rpm for 5 min and the mice were tested four times. During the accelerating trials, the latency to fall from the rod was measured. Non-treated ASMko mice spent less time on the rod in the four trials than wt mice, indicative of impaired motor abilities.
# wt and ASMko mice [3] = experiment: Y maze test (hippocampal dependent memory); assay type: in vivo, mouse; details: 0.3 mg/kg every three days
# Experimental: FIGS. 13A-13C show the effect of PF-04457845 treatment on various behavioral functions. […] (n=14; **p<0.01, *p<0.05).
# as §2
# Hippocampal dependent memory was monitored by the Y maze test (FIG. 13A). During the first training trial (8 min) the mice were only allowed to explore two arms (the initial arm and one other arm), maintaining the third arm (novel arm) closed. After 1 hour, the mice were placed back in the same starting arm with free access to all three arms for 5 min.
# The time spent in the novel arm was counted and expressed as a percentage of the total exploration time. Non-treated ASMko mice spent less time in the novel arm than wt mice, indicative of impaired memory.
# wt or ASMko mice = experiment: Acute toxicity: in-life observations for 48 hours after a single oral dose; assay type: in vivo, mouse; details: 48 hours after single oral dose, any of the doses (0.1, 1, 5 mg/kg)
# Experimental: To that end, a toxicity assessment of oral PF-04457845 treatment in AMSko mice was performed to determine the toxicity in liver and brain of single doses of PF-04457845 administered by oral gavage at different concentration.
# as §1
# Doses have been calculated taking into account that used in the study conducted in healthy humans (Li et al., Br J Clin Pharmacol 2011, 73:706-716). […] Estimating an average weight of 60 kg for an adult human the daily dose equals to 0.0083 mg/kg. This dose was very similar to that used in our first 8 week-long treatment with PF-04457845 in ASMko mice, which according to the formulas to calculate equivalence between humans and mice (Nair and Jacob J Basic Clin Pharma 2016, 7:27-31) corresponded to a daily HED dose of 0.0072 mg/kg. For this toxicity study we agreed to take into account the human dose: 0.0083 mg/kg. Formula conversion to mouse dose: HED (mg/kg)=Mouse dose (mg/kg)×mouseKm/Human Km).
# wt and ASMko mice [4] = experiment: Acute toxicity: H&E staining of brain and liver; assay type: in vivo, mouse; details: any of the doses
# Experimental: FIGS. 27A-27C show H&E staining in wt and ASMko mice treated or not treated with PF-04457845.
# as §1
# Brain and liver tissue was stained with H&E to evaluate histopathological features.
# In the liver foam cells showing white vacuoles indicative of lipid accumulation were evident in vehicle treated ASMko mice compared to wt (FIG. 28).
compound,measurement,setting,value
O=C(Nc1cccnn1)N1CCC(=Cc2cccc(Oc3ccc(C(F)(F)F)cn3)c2)CC1 [PF-04457845],SM levels in blood,"wt and ASMko mice [1]; ASMko mice, single doses 0.1, 1, 5 mg/kg (data not shown)",moderate dose-dependent decrease
same,ceramide levels in blood,wt and ASMko mice [1]; single dose of 0.1 mg/kg (data not shown),high variability with a tendency to increase
same,ceramide levels in blood,wt and ASMko mice [1]; single dose of 1 mg/kg (data not shown),decreased
same,ceramide levels in blood,wt and ASMko mice [1]; single dose of 5 mg/kg (data not shown),decreased
same,increase of anandamide levels in the hippocampus,anandamide levels; ASMko mice,1.96 fold
same,increase of anandamide levels in the hippocampus,anandamide levels; wt mice,2.09 fold
same,microglia amoeboid morphology in the hippocampus and cerebellum,microglia; ASMko mice,normalized to a significant extent
same,microglia morphology in cerebellum (iba-1),microglia; ASMko mice,normalized their morphology
same,microglia number in cerebellum (iba-1),microglia; ASMko mice,reduced microglia number
same,microglia,microglia; wt mice,no effect
same,"morphology, length, appearance of dendrites (MAP2)",ASMko cultured neurons,"did not alter the morphology, length or homogeneous appearance of dendrites"
same,time on the rod (Rotarod),"wt and ASMko mice [2]; ASMko mice, second, third and fourth trials",significantly improved the time on the rod
same,"time on the rod (Rotarod), treated versus non-treated",wt and ASMko mice [2]; wt mice,No differences
same,time in the novel arm of Y maze (memory),wt and ASMko mice [3]; ASMko mice,restored memory function
same,"time in the novel arm of Y maze, treated versus non-treated",wt and ASMko mice [3]; wt mice,No differences
same,"adverse effects (abnormal behavior, weight loss, motor anomalies, skin alterations)",wt or ASMko mice,No evident adverse effects
same,H&E staining of liver (foam cell pattern),wt and ASMko mice [4]; ASMko mice,did not significantly alter this pattern
same,"H&E staining of hippocampus, cerebellum and cortex",wt and ASMko mice [4]; wt and ASMko mice,did not cause significant changes in H&E staining
